Experiments:
Human CBG-WT = target: T1, Human CBG-WT (Homo sapiens, UniProt P08185, K148A); assay: Isothermal titration calorimetry, steroid titrated to uncleaved human CBG-WT; assay type: binding; details: ITC, 25°C
T1 construct: residues 11 to 383 of human CBG (Swiss-Prot entry P08185); GST (N, cleaved yes); made in house; host or cells: E. coli BL21 Star (DE3)
T1 sequence (P08185 33-405 K148A): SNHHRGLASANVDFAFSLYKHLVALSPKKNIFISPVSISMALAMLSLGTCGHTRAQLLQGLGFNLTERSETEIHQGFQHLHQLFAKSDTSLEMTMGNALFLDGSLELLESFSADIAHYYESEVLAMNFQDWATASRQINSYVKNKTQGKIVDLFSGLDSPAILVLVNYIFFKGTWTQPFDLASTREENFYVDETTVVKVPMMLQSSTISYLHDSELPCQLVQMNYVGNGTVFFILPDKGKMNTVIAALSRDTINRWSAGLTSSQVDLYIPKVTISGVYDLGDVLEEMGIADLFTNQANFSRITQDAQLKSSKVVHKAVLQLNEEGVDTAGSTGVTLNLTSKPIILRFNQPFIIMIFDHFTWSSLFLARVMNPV
Protocol: The coding sequences of residues 11 to 383 of human CBG (Swiss-Prot entry P08185) and residues 5 to 374 of rat CBG (P31211) were cloned into a pGEX-2T vector (GE Healthcare, Uppsala), yielding N-terminal glutathione-S-transferase (GST) fusion proteins. Mutations were introduced using a two-stage PCR procedure based on the QuikChange (Stratagene, Santa Clara) site-directed mutagenesis protocol. All experiments with human CBG were conducted with a mutant in which surface residue Lys126 was replaced by alanine in order to facilitate crystallization. Wild-type rat CBG (rat CBG-WT) and rat CBG mutants CBG-RCL1, CBG-RCL2 and CBG-RCL3 were produced to probe the function of the RCL residues in rat CBG. All gene constructs were confirmed by DNA sequencing prior to protein production.
The GST-tagged human and rat CBG variants were produced in E. coli BL21 Star™ (DE3) cells (Invitrogen, Carlsbad) using the ZYM-5052 auto-inducing medium. For each variant, 10 L of ZYM-5052 medium containing 100 µg/mL ampicillin were inoculated with an overnight culture of a single clone. The flasks were incubated at 37°C until the optical density at 600 nm reached 0.3. The temperature was then lowered to 20°C, and the cells were allowed to grow for an additional 20 h. The pellet was resuspended in PBS buffer (pH 7.4) containing 5 mM EDTA after cell harvesting (4 mL of buffer per gram of pellet).
The protein samples were dialyzed against ITC buffer (20 mM potassium phosphate, 50 mM NaCl, pH 7.4) and titrated with steroids in a VP-ITC microcalorimeter (Microcal, Piscataway). All solutions were filtered (0.2 µm filter pore size) and degassed for 30 min prior to the titration experiments. The sample cell was filled with protein solution containing 15 µM rat CBG or 20 µM human CBG and titrated with steroid solutions containing 150 µM and 200 µM ligand, respectively. The titrations consisted of an initial injection of 2 µL followed by 25 consecutive injections of 10 µL ligand solution at 25°C. A spacing of 240 sec between the injections was used to allow a return to the baseline. Data points from the initial injection, which are generally affected by diffusion during the initial equilibration period after experiment setup, were discarded prior to data analysis. […] The binding curve was generated by plotting the heats of injections against the ratio of ligand to protein in the cell. Integrated heat data were analyzed using nonlinear regression fit with a one-site-binding model in the Origin-7™ software provided with the VP-ITC. Changes in the free energy and entropy can be calculated using the equation: ΔG° = −RTlnK = ΔH°−TΔS°. In this equation ΔG° is the change in Gibbs free energy, R the universal gas constant, T the temperature, and K the association constant. […]

Cleaved rat CBG-RCL1 = target: T2, Cleaved rat CBG-RCL1 (Rattus norvegicus, UniProt P31211, A357V/P358T); assay: Isothermal titration calorimetry, steroid titrated to neutrophil elastase-cleaved rat CBG-RCL1; assay type: binding
T2 construct: residues 5 to 374 of rat CBG (P31211); GST (N, cleaved yes); made in house; host or cells: E. coli BL21 Star (DE3)
T2 sequence (P31211 27-396 A357V/P358T limits assumed): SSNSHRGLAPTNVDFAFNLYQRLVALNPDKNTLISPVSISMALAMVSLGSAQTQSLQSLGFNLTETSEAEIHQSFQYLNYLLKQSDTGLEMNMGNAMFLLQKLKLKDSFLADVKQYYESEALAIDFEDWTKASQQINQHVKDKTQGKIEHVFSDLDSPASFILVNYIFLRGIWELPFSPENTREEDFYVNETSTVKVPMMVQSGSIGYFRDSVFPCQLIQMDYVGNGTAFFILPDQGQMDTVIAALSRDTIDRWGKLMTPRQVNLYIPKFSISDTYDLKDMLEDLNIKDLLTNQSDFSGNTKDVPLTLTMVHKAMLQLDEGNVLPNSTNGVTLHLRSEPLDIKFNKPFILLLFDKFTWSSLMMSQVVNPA
Protocol: Cleavage of the RCL in human and rat CBG mutants was accomplished with 100 mU human neutrophil elastase (Sigma-Aldrich) per mg purified CBG at 30°C and monitored by SDS-PAGE. The cleavage reaction was stopped with AEBSF.
The protein samples were dialyzed against ITC buffer (20 mM potassium phosphate, 50 mM NaCl, pH 7.4) and titrated with steroids in a VP-ITC microcalorimeter (Microcal, Piscataway). All solutions were filtered (0.2 µm filter pore size) and degassed for 30 min prior to the titration experiments. The sample cell was filled with protein solution containing 15 µM rat CBG or 20 µM human CBG and titrated with steroid solutions containing 150 µM and 200 µM ligand, respectively. The titrations consisted of an initial injection of 2 µL followed by 25 consecutive injections of 10 µL ligand solution at 25°C. A spacing of 240 sec between the injections was used to allow a return to the baseline. Data points from the initial injection, which are generally affected by diffusion during the initial equilibration period after experiment setup, were discarded prior to data analysis. […] The binding curve was generated by plotting the heats of injections against the ratio of ligand to protein in the cell. Integrated heat data were analyzed using nonlinear regression fit with a one-site-binding model in the Origin-7™ software provided with the VP-ITC. Changes in the free energy and entropy can be calculated using the equation: ΔG° = −RTlnK = ΔH°−TΔS°. In this equation ΔG° is the change in Gibbs free energy, R the universal gas constant, T the temperature, and K the association constant. The change in enthalpy is denoted as ΔH°, and ΔS° is the change in entropy under standard conditions. The data shown in Table 2 were obtained from single titrations of each complex.

cleaved human CBG = target: cleaved human CBG; parameters: method as in PMID 21325280; details: 37°C, cited from earlier work
[1] = ITC, 25°C, cleaved rat CBG-RCL1

In the case of C[C@]12CCC(=O)C=C1CC[C@@H]1[C@@H]2[C@@H](O)C[C@@]2(C)[C@H]1CC[C@]2(O)C(=O)CO [Hydrocortisone], the Kd (Human CBG-WT; single titration, uncleaved human CBG-WT (K126A, E. coli produced)) is reported as 45 ± 7 nM, the “TΔS°” value (Human CBG-WT; uncleaved human CBG-WT) is reported as -26.08 kcal/mol and the “ΔG°” value (Human CBG-WT; uncleaved human CBG-WT) is reported as -10.1 kcal/mol. The “ΔH°” value (Human CBG-WT; uncleaved human CBG-WT) was -36.14 kcal/mol, the “TΔS°” value (Cleaved rat CBG-RCL1; [1]) was -30.43 kcal/mol and the “ΔG°” value (Cleaved rat CBG-RCL1; [1]) was -9.2 kcal/mol. The “ΔH°” value (Cleaved rat CBG-RCL1; [1]) was -39.63 kcal/mol, the Kd (Cleaved rat CBG-RCL1; ITC, 25°C, single titration, cleaved rat CBG-RCL1) was 209 ± 20 nM and the “decrease in binding affinity upon RCL cleavage” value (Cleaved rat CBG-RCL1; rat CBG, uncleaved vs cleaved rat CBG-RCL1, ITC 25°C) was “about 2 fold”. The Kd (cleaved human CBG; cleaved human CBG-WT, read-out: K d 37°C) was 1370 ± 124 nM and the “difference of affinities of uncleaved and cleaved human CBG” value (cleaved human CBG; fluorescence titration) was “about 4.7 fold”.
